The record followed here is patent US10709704B2, “Treating neural disease with tyrosine kinase inhibitors” (GEORGETOWN UNIVERSITY, priority 2012, dated 2020).

Experiment [1] concerns human Tau, Aβ1-42, α-synuclein. In words: M17 cells transfected with Tau cDNA: Tau, Aβ1-42, α-synuclein. The class given is cell-based. As to the method: Cell culture experiments are referenced below and explained in Burns et al. (Human Molecular Genetics. 2009) and Rebeck et al. (J. Biol. Chem. 2010, 285:7440-7446). Additional details are provided in the brief description of the figures.
In other experiments, M17 cells transfected with Tau cDNA were treated with Nilobinib and Tubacin (an HDAC6 inhibitor).

For experiment [2], the system named is Tg-APP mice. As to the kind of experiment: Morris water maze, Tg-APP mice. It counts as in vivo, mouse. As to the method: (§1) All animals were pre-trained (trials) to swim for 90 seconds in a water maze containing a platform submerged in water (invisible) for 4 consecutive days once a day. The pretraining trials “teach” the swimming animals that to “escape”, they must find the hidden platform, and stay on it. The water maze “test” was performed on day 5, (40), when the platform was removed and mice have to swim and find it, thus assessing acquisition and retention. All parameters, including distance travelled to reach platform, speed to get to the platform, latency or time spent on platform, and platform entry were digitally recorded on a computer and analyzed by a blind investigator.
These experiments were repeated in 1 year old Tg-APP mice and age-matched control (C57BL/6).

Experiment [3] concerns lentiviral Aβ1-42-injected parkin−/− mice. As to the kind of experiment: Morris water maze, lentiviral Aβ1-42 parkin−/− mice. The class given is in vivo, mouse. As to the method: as §1
The Morris water maze test was performed after 4 days of training trials in which the platform was placed in the SE corner and mice were initially placed in the NW corner of the pool.

Experiment [4] deals with dopamine and homovanillic acid (HVA) levels. In words: Dopamine and HVA ELISA, lentiviral α-Synuclein mice. The class given is in vivo, mouse. To be noted: 10 mg/kg Nilotinib or 5 mg/Kg Bosutinib. On the procedure: Total brain or mesencephalon were collected and fresh 50 μl (1 μg/μl) brain lysates (in STEN buffer) were detected with 50 μl primary antibody (1 h) and 100 μl anti-rabbit secondary antibody (30 min) at RT according to manufacturer's protocols (Abnova, Cat # BOLD01090J00011) for DA and (Eagle Biosciences, Cat # HVA34-K01) for HVA.

The subject of experiment [5] is mice injected with lentiviral α-synuclein into the substantia nigra. In words: Rotarod, lentiviral α-Synuclein mice. The class given is in vivo, mouse. An excerpt: Mice were placed on an accelerating rotarod (Columbus Instruments) equipped with individual timers for each mouse. […] All values were converted to % control.
For experiment [6], the system named is autophagic vacuoles and lysosomes. In words: Subcellular fractionation and ELISA, lentiviral Tau±Aβ1-42 mice. The class given is in vivo, mouse. As to the method:
Brain tissues were fractionated to isolate AVs and human specific ELISA was performed to determine Aβ1-42 contents. […] It was also observed that autophagic clearance is parkin-dependent.
Brain tissues were fractionated to isolate AVs and mouse specific ELISA was performed to determine protein contents.
Brain tissues were fractionated to isolate AVs and human specific ELISA was performed to determine protein contents.
0.5 g of Frozen human or animal brains were homogenized at low speed (Cole-Palmer homogenizer, LabGen 7, 115 Vac) in 1×STEN buffer and centrifuged at 1,000 g for 10 minutes to isolate the supernatant from the pellet. The pellet was re-suspended in 1×STEN buffer and centrifuged once to increase the recovery of lysosomes. The pooled supernatants were then centrifuged at 100,000 rpm for 1 hour at 4° C. to extract the pellet containing autophagic vacuoles (AVs) and lysosomes. The pellet was then re-suspended in 10 ml (0.33 g/ml) 50% Metrizamide and 10 ml in cellulose nitrate tubes. A discontinuous Metrizamide gradient was constructed in layers from bottom to top as follows: 6 ml of pellet suspension, 10 ml of 26%; 5 ml of 24%; 5 ml of 20%; and 5 ml of 10% Metrizamide (Marzella et al., 1982). After centrifugation at 10,000 rpm for 1 hour at 4° C., the fraction floating on the 10% layer (Lysosome) and the fractions banding at the 24%/20% (AV 20) and the 20%/10% (AV10) Metrizamide inter-phases were collected by a syringe and examined.
Animal brains were homogenized at low speed (Cole-Palmer homogenizer, LabGen 7, 115 Vac) in 1×STEN buffer and centrifuged at 1,000 g for 10 minutes to isolate the supernatant from the pellet. The pellet was re-suspended in 1×STEN buffer and centrifuged once to increase the recovery of lysosomes. The pooled supernatants were then centrifuged at 100.000 rpm for 1 hour at […] to extract the pellet containing autophagic vacuoles (AVs) and lysosomes. The pellet was then re-suspended in 10 ml (0.33 g/ml) 50% Metrizamide and 10 ml in cellulose nitrate tubes. […]

As to `Cc1cn(-c2cc(NC(=O)c3ccc(C)c(Nc4nccc(-c5cccnc5)n4)c3)cc(C(F)(F)F)c2)cn1` [Nilotinib], in experiment [1], the “human Aβ1-42” value is listed as “decrease”, the “human Tau” value is reported as “decrease” and the α-synuclein entry is reported as “decrease”. Moreover, the “time spent in SE” value in experiment [2] (1 year old Tg-APP mice, 10 mg/kg daily for 3 weeks) is listed as “reversed time spent in SE back to control level”. Besides, in experiment [2] (Nilotinib treated Tg-APP mice), the “distance traveled above control levels” value was 30%. Besides, in experiment [2] (Tg-APP+Nilotinib), the “entries into SE (platform entry) higher than control” value amounted to 30%. Further, the “decrease in distance travelled compared to control and wild type” value in experiment [3] (Aβ1-42 parkin−/− mice with Nilotinib (first of '±Nilotinib ... respectively')) was 80%. Also, in experiment [3] (Aβ1-42 parkin−/− mice with and without Nilotinib), the “time in NW quadrant” value is recorded as “remained significantly more in the NW quadrant”. The “α-synuclein induced loss of dopamine and HVA levels (ELISA)” value in experiment [4] is on record as “reversed these effects”. In addition, in experiment [5] (lentiviral α-Synuclein mice + Nilotinib (DMSO 39%)), the rotarod motor performance is listed as 86 % of LacZ level. Moreover, the “motor performance (rotarod)” value in experiment [5] (lentiviral α-synuclein mice, 10 mg/kg Nilotinib or 5 mg/Kg Bosutinib) is on record as “improved motor performance”. Also, in experiment [6] (lentiviral Tau±Aβ1-42 mice, 10 mg/kg Nilotinib or 5 mg/Kg Bosutinib daily 3 weeks), the “autophagic clearance of p-Tau ser 396, human specific ELISA” value is listed as “enhances autophagic clearance”. Besides, in experiment [6] (lentiviral Tau±Aβ1-42 mice, IP 10 mg/kg Nilotinib daily 3 weeks), the “autophagic clearance of Aβ1-42 (deposition in AV-20 and lysosome)” value is “enhances autophagic clearance”. For the same molecule, in experiment [6] (lentiviral human Tau±Aβ1-42 mice, IP 10 mg/kg Nilotinib daily 3 weeks), the “autophagic clearance of p-Tau ser 396, mouse specific ELISA” value was “enhances autophagic clearance”.
